Laboratory results: PubChem BioAssay (NCI)
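Compound exposure: 48 hours, 5 concentrations, 96-well plates. GI50: concentration for 50% inhibition of growth. Definition used: TGI = concentration required for complete inhibition of growth.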 Where a SMILES comes first, the peptide text is derived from it. The star is where a group is joined. Bn = c1ccc(C*)cc1

tested on: MDA-N; test: growth of human tumour cells (NCI), 48 h

Row | Structure (SMILES) | TGI [µM]
1 | CC(C)(C)OC(=O)C1C(=O)NC(=O)CC1C(COCc1ccccc1)OCc1ccccc1 (configuration not stated) | 36.2
2 | Nc1nc(Nc2ccc(Cl)cc2)sc1C(=O)c1cccs1 | > 100
3 | Cc1c(C#N)c(N)n(C2OCC(O)C(O)C2O)c(=S)c1C#N (configuration not stated) | > 100
4 | O=C(CCCN1CCC2(CC1)C(=NC1CCCCC1)NC(=O)N2c1ccccc1)c1ccc(F)cc1 | 34.9
5 | CCOC(=O)[C@@H]1ON2O[C@@H](OC3CCCC3(c3ccccc3)c3ccccc3)C[C@H]3OC(=O)[C@@H]1C32 (some centres not stated) | 67.6
6 | S=C1CC(c2ccccc2)Sc2ccc(Cl)cc2N1 (configuration not stated) | > 100
7 | O=c1n(Cc2ccccc2)c(=O)n2c(=O)n(Cc3ccccc3)c(=O)n12 | > 100
8 | O=C1CS(=O)C23c4cc5ccccc5n4CCC2CCCN13 (configuration not stated) | > 100
9 | CN1COCc2cc3cc4c(cc3nc21)OCCO4 | > 100
10 | Cc1ccc(-c2c(C#N)c(-c3ccc([N+](=O)[O-])cc3)c(C#N)c(=O)n2NS(=O)(=O)c2ccccc2)cc1 | > 100
11 | CCOC(=O)C1(C(=O)OCC)CCCN1C(=O)[C@H](CNC(=O)OC(C)(C)C)NC(=O)OCc1ccccc1 | > 100
12 | O/C(=C\c1nc2ccccc2nc1NC12CC3CC(CC(C3)C1)C2)c1ccc(Br)cc1 | > 10
13 | COc1cc([C@@H]2c3cc4c(cc3[C@@H](c3c(O)cc(O)c5c3O[C@H](c3ccc(O)c(O)c3)[C@@H](O)C5)[C@H]3COC(=O)[C@H]23)OCO4)cc(OC)c1O | > 100
14 | O=C(c1ccccc1)N1C(=S)N=C(Nc2ccccc2)C1=Nc1ccccc1 | > 100
15 | COc1ccc(N=NC(=Nc2ccc(F)cc2)c2ccc(N(CCC#N)CCC#N)cc2)cc1 | > 100
16 | CSC(SC)=C1C(=O)N(c2ccccc2)N=C1C | > 100
17 | O=C(O)CC(NC(=O)/C(=C/c1ccccc1O)NC(=O)c1ccccc1)C(=O)O (configuration not stated) | > 100
18 | N#Cc1c(C#N)c(-c2ccccc2)n(-c2ccccc2)c1N | > 100
19 | N#CC(=N)c1ncn(-c2ccccc2N)c1N | > 100

tested on: HOP-92 NSCLC; test: growth of human tumour cells (NCI), 48 h

Row | Structure (SMILES) | TGI [µM] | GI50 [µM]
20 | CC1=CC(=O)CC2(C)CCC(C(C)CC(=O)CC(C)C)CC12 (configuration not stated) | > 100 | 
21 | OCC(O)C(O)C(O)/C=N/Nc1nc(O)c(/C=C2\C=Nc3ccccc32)[nH]1 (configuration not stated) | > 100 | 
22 | COc1cc2c(cc1OC)C13CC[N+]4(C)CC5=CCOC6CC(=O)N2C1C6C5CC34[O-] (configuration not stated) | > 100 | 
23 | COC(=O)C(CC(C)C)NC(=O)C(N)Cc1ccc(OCc2ccccc2)cc1 (configuration not stated) (H-Tyr(Bn)-Leu-OMe; configuration not given here) | > 10 | 
24 | CC(C)(C)OC(=O)C1C(=O)NC(=O)CC1C(COCc1ccccc1)OCc1ccccc1 (configuration not stated) | 30.5 | 
25 | Nc1nc(Nc2ccc(Cl)cc2)sc1C(=O)c1cccs1 | > 100 | 
26 | O=C(CCCN1CCC2(CC1)C(=NC1CCCCC1)NC(=O)N2c1ccccc1)c1ccc(F)cc1 | 37.8 | 
27 | CCOC(=O)[C@@H]1ON2O[C@@H](OC3CCCC3(c3ccccc3)c3ccccc3)C[C@H]3OC(=O)[C@@H]1C32 (some centres not stated) | > 100 | 
28 | O=c1n(Cc2ccccc2)c(=O)n2c(=O)n(Cc3ccccc3)c(=O)n12 | > 100 | 
29 | CCN(CC)CCNc1ccc2ncn3c4cc(OC)c(OC)c(=O)c4c(O)c1c23 | 24.7 | 
30 | O=C1CS(=O)C23c4cc5ccccc5n4CCC2CCCN13 (configuration not stated) | > 100 | 
31 | CN1COCc2cc3cc4c(cc3nc21)OCCO4 | > 100 | 
32 | Cc1ccc(-c2c(C#N)c(-c3ccc([N+](=O)[O-])cc3)c(C#N)c(=O)n2NS(=O)(=O)c2ccccc2)cc1 | 85.9 | 
33 | COc1ccc2c(c1)CCN=C2c1ccccc1CCCCl | > 100 | 
34 | COc1ccc(-c2csc(NC(=O)CSc3nc(C)c(-c4ccccc4)n3Nc3ccccc3)n2)cc1 | > 100 | > 100
35 | Clc1ccc(Cl)c(SCCCN2CCNCC2)c1 | 32.6 | 
36 | CCN1C(=O)N(CC)C2Nn3c(s/c(=C4\C(=O)N(C)c5ccccc54)c3=O)=NC21 (configuration not stated) | > 100 | 69.5
37 | CCCCC/C(C=O)=C\c1ccccc1 | > 100 | 
38 | COc1cc([C@@H]2c3cc4c(cc3[C@@H](c3c(O)cc(O)c5c3O[C@H](c3ccc(O)c(O)c3)[C@@H](O)C5)[C@H]3COC(=O)[C@H]23)OCO4)cc(OC)c1O | > 100 | 
39 | COc1ccc(N=NC(=Nc2ccc(F)cc2)c2ccc(N(CCC#N)CCC#N)cc2)cc1 | 72.9 | 
40 | CSC(SC)=C1C(=O)N(c2ccccc2)N=C1C | 33.7 | 
41 | O=C(Nc1ccc(-n2cc(-c3ccncc3)c(-c3ccc(O)c(Cl)c3)n2)cc1)Nc1cccc(Cl)c1Cl | 9.84 | 1.16
42 | COc1ccccc1N1CCN(CCCNC(=O)c2cc(Cl)c(N)c(Cl)c2)CC1 | 31.4 | 
43 | O=C(O)c1c2c(cc3c1CC1(Cc4ccccc4C1=O)C3)CCC2 (configuration not stated) | > 91.6 | 

tested on: NCI/ADR-RES ovarian; test: growth of human tumour cells (NCI), 48 h

Row | Structure (SMILES) | TGI [µM] | GI50 [µM]
44 | O=C(O)CSC(NC(=O)C(C(F)(F)F)C(F)(F)F)(C(F)(F)F)C(F)(F)F | > 100 | 
45 | CN(C)P(=O)(Oc1occc1C(O)Cc1ccccc1)N(C)C (configuration not stated) | > 100 | 
46 | CC1=CC(=O)CC2(C)CCC(C(C)CC(=O)CC(C)C)CC12 (configuration not stated) | > 100 | 
47 | OCC(O)C(O)C(O)/C=N/Nc1nc(O)c(/C=C2\C=Nc3ccccc32)[nH]1 (configuration not stated) | > 100 | 
48 | COc1cc2c(cc1OC)C13CC[N+]4(C)CC5=CCOC6CC(=O)N2C1C6C5CC34[O-] (configuration not stated) | > 100 | 
49 | COC(=O)C(CC(C)C)NC(=O)C(N)Cc1ccc(OCc2ccccc2)cc1 (configuration not stated) (H-Tyr(Bn)-Leu-OMe; configuration not given here) | > 10 | 
50 | Nc1nc(Nc2ccc(Cl)cc2)sc1C(=O)c1cccs1 | > 100 | 
51 | Cc1c(C#N)c(N)n(C2OCC(O)C(O)C2O)c(=S)c1C#N (configuration not stated) | > 100 | 
52 | O=C(CCCN1CCC2(CC1)C(=NC1CCCCC1)NC(=O)N2c1ccccc1)c1ccc(F)cc1 | 51.4 | 
53 | CCOC(=O)[C@@H]1ON2O[C@@H](OC3CCCC3(c3ccccc3)c3ccccc3)C[C@H]3OC(=O)[C@@H]1C32 (some centres not stated) | > 100 | 
54 | S=C1CC(c2ccccc2)Sc2ccc(Cl)cc2N1 (configuration not stated) | > 100 | 
55 | O=c1n(Cc2ccccc2)c(=O)n2c(=O)n(Cc3ccccc3)c(=O)n12 | > 100 | 
56 | CCN(CC)CCNc1ccc2ncn3c4cc(OC)c(OC)c(=O)c4c(O)c1c23 | 41.8 | 
57 | O=C1CS(=O)C23c4cc5ccccc5n4CCC2CCCN13 (configuration not stated) | > 100 | 
58 | CN1COCc2cc3cc4c(cc3nc21)OCCO4 | > 100 | 
59 | Cc1ccc(-c2c(C#N)c(-c3ccc([N+](=O)[O-])cc3)c(C#N)c(=O)n2NS(=O)(=O)c2ccccc2)cc1 | > 100 | 
60 | COc1ccc2c(c1)CCN=C2c1ccccc1CCCCl | > 100 | 
61 | COc1ccc(-c2csc(NC(=O)CSc3nc(C)c(-c4ccccc4)n3Nc3ccccc3)n2)cc1 | > 100 | 4.21
62 | Clc1ccc(Cl)c(SCCCN2CCNCC2)c1 | 36.2 | 
63 | CCOC(=O)C1(C(=O)OCC)CCCN1C(=O)[C@H](CNC(=O)OC(C)(C)C)NC(=O)OCc1ccccc1 | > 100 | 
64 | O/C(=C\c1nc2ccccc2nc1NC12CC3CC(CC(C3)C1)C2)c1ccc(Br)cc1 | > 10 | 
65 | CCN1C(=O)N(CC)C2Nn3c(s/c(=C4\C(=O)N(C)c5ccccc54)c3=O)=NC21 (configuration not stated) | > 100 | 1.95
66 | CCCCC/C(C=O)=C\c1ccccc1 | > 100 | 
67 | COc1cc([C@@H]2c3cc4c(cc3[C@@H](c3c(O)cc(O)c5c3O[C@H](c3ccc(O)c(O)c3)[C@@H](O)C5)[C@H]3COC(=O)[C@H]23)OCO4)cc(OC)c1O | > 100 | 
